Source: patent US10154988B2, “Methods and compositions for treating schizophrenia” (The Johns Hopkins University, priority 2012, dated 2018)

What was measured:
[1] = system: MAM-treated rats; conditions: cited from earlier work
[2] = system: MAM-treated rats; conditions: rat, in vivo; cited from earlier work
[3] = system: aged-impaired (AI) rats; test: eight-arm Radial Arm Maze task, one-hour delay (levetiracetam, valproate, combination); format: in vivo, rat; conditions: valproate on its own
Description: The effects of levetiracetam on the spatial memory retention of aged-impaired (AI) rats are assessed in a Radial Arm Maze (RAM) behavioral task using vehicle control and five different dosage levels of levetiracetam (1.25 mg/kg/day, 2.5 mg/kg/day, 5 mg/kg/day, 10 mg/kg/day and 20 mg/kg/day). RAM behavioral tasks are preformed on ten AI rats. All six treatment conditions are tested on all ten rats, as described above for the MWM test. The RAM apparatus used consists of eight equidistantly-spaced arms. An elevated maze arm (7 cm width×75 cm length) projects from each facet of an octagonal center platform (30 cm diameter, 51.5 cm height). Clear side walls on the arms are 10 cm high and are angled at 65° to form a trough. A food well (4 cm diameter, 2 cm deep) is located at the distal end of each arm. Froot Loops™ (Kellogg Company) are used as rewards. Blocks constructed of Plexiglas™ (30 cm height×12 cm width) can be positioned to prevent entry to any arm. Numerous extra maze cues surrounding the apparatus are also provided. The AI rats are initially subjected to a pre-training test (Chappell et al. Neuropharmacology 37: 481-487, 1998). The pre-training test consists of a habituation phase (4 days), a training phase on the standard win-shift task (18 days) and another training phase (14 days) in which a brief delay is imposed between presentation of a subset of arms designated by the experimenter (e.g., 5 arms available and 3 arms blocked) and completion of the eight-arm win-shift task (i.e., with all eight arms available). In the habituation phase, rats are familiarized to the maze for an 8-minute session on four consecutive days. In each of these sessions food rewards are scattered on the RAM, initially on the center platform and arms and then progressively confined to the arms. After this habituation phase, a standard training protocol is used, in which a food pellet is located at the end of each arm. Rats receive one trial each day for 18 days. Each daily trial terminates when all eight food pellets have been obtained or when either 16 choices are made or 15 minutes had elapsed. After completion of this training phase, a second training phase is carried out in which the memory demand is increased by imposing a brief delay during the trial. At the beginning of each trial, three arms of the eight-arm maze are blocked. Rats are allowed to obtain food on the five arms to which access is permitted during this initial ‘information phase’ of the trial. Rats are then removed from the maze for 60 seconds, during which time the barriers on the maze are removed, thus allowing access to all eight arms. Rats are then placed back onto the center platform and allowed to obtain the remaining food rewards during this ‘retention test’ phase of the trial. The identity and configuration of the blocked arms varies across trials. The number of “errors” the AI rats make during the retention test phase is tracked. An error occurs in the trial if the rats enter an arm from which food had already been retrieved in the pre-delay component of the trial, or if it re-visits an arm in the post-delay session that has already been visited. After completion of the pre-training test, rats are subjected to trials with more extended delay intervals, i.e., a one-hour delay, between the information phase (presentation with some blocked arms) and the retention test (presentation of all arms). During the delay interval, rats remain off to the side of the maze in the testing room, on carts in their individual home cages. AI rats are pretreated 30-40 minutes before daily trials with a one-time shot of the following six conditions: 1) vehicle control (0.9% saline solution); 2) levetiracetam (1.25 mg/kg/day); 3) levetiracetam (2.5 mg/kg/day); 4) levetiracetam (5 mg/kg/day); 5) levetiracetam (10 mg/kg/day); 6) levetiracetam (20 mg/kg/day); […] Injections are given every other day with intervening washout days. Each AI rat is treated with all six conditions within 23 days of testing. […]

[4] = system: Memory-impaired aged rats; test: Radial Arm Maze task, 2-hr delay, acute brivaracetam or seletracetam; format: in vivo, rat; conditions: 0.0625-4 mg/kg i.p. 30-40 min before test; repeated measures ANOVA (brivaracetam p=0.039, seletracetam p=0.009)
Description: (§1) The radial arm maze experiments uses acute administration of seletracetam (0-4 mg/kg), brivaracetam (0-4 mg/kg), or saline vehicle given by intraperitoneal injection (in a volume of 1 ml/kg) 30-40 min prior to test sessions. In the chronic treatment experiment, memory-impaired aged rats are implanted subcutaneously in the intrascapular region with osmotic mini-pumps (ALZET, Durect Corporation, Cupertino, Calif.) with brivaracetam (2 mg/kg/day) or saline vehicle starting two weeks prior to assessment in the water maze.
A radial arm maze (RAM) task is used to assess effects of acute drug treatment with seletracetam and brivaracetam. This protocol allows within-subject assessment across drugs at different doses. The radial maze consists of eight arms projecting from each side of an octagonal center platform, with a food well located at the distal end of each arm. Plexiglas blocks can be positioned to prevent entry into any arm. Extra-maze cues are provided in the room surrounding the maze and illumination is provided by an overhead light.
Pre-training, as described in detail in Chappell et al. Neuropharmacology 37: 481-487, (1998), consists of habituation, standard win-shift training, and win-shift training with delays interposed between information and memory test phases. […]

[5] = system: Memory-impaired aged rats; test: water maze probe test after chronic brivaracetam (osmotic mini-pumps); format: in vivo, rat; conditions: 2 mg/kg/day
Description: as §1
Rats are trained and tested in a novel water maze environment to assess the effect of drug treatment. The water maze used here is housed in a different building and is surrounded by curtains with a novel set of patterns relative to the maze used for initial assessment of cognitive status. The training protocol consists of 6 trials per day for 2 days to locate a submerged escape platform. On each trial, a rat is released in the maze from one of four equally spaced starting positions around the perimeter of the pool. The starting position varies from trial to trial. […] The rat is then removed from the platform and placed in a holding cage for another 40 s before the next trial. Approximately 24 hrs after the last training trial, a probe test in the absence of the escape platform is given to assess spatial memory.

**Q.** Which results are given for C#Cc1ccc2c(c1)C(c1ccccc1F)=N[C@H](C)c1c(C(=O)OCC)ncn1-2 [SH-053-2′F—R—CH3]?
**A.** increased locomotor response to amphetamine in MAM-treated rats ([1]; rat, in vivo): reduced; cortical-evoked responses of HPC neurons ([1]; saline-treated and MAM-treated animals): diminished cortical-evoked responses; number of spontaneously active DA neurons in the VTA of MAM rats ([1]; systemic or infused into the ventral HPC, to levels of saline-treated rats): reduces the number of spontaneously active DA neurons

**Q.** For NC1=N[C@H](O)[C@H]2[C@H]3O[C@]4(O)O[C@@H]([C@@H](O)[C@@]2(N1)[C@@H]4O)[C@]3(O)CO [tetrodotoxin], which “augmented amphetamine-induced locomotor behavior” value [2] is on record?
**A.** The value was “normalized”.

**Q.** And the “elevated DA neuron population activity” value [2]?
**A.** Its value is “completely reversed”.

**Q.** What does the source list for CCCC(CCC)C(=O)O [valproate]?
**A.** reducing the number of errors in the radial arm maze ([3]; 25 mg/kg subcutaneous): not at 25 mg/kg or 50 mg/kg; reducing the number of errors in the radial arm maze ([3]; 50 mg/kg subcutaneous): not at 25 mg/kg or 50 mg/kg; reducing the number of errors in the radial arm maze ([3]; 100 mg/kg subcutaneous): effective at 100 mg/kg

**Q.** What does the source list for CCC[C@@H]1CC(=O)N([C@@H](CC)C(N)=O)C1 [brivaracetam]?
**A.** number of errors in the retention phase after the 2-hr delay, effect of dose [4]: significant effect as a function of dose; spatial bias for the target quadrant compared to the other quadrants ([5]; 14 days, n=3/group, t(2)=10.000, p=0.010): significant spatial bias; time in the target annulus versus vehicle-treated rats ([5]; t(4)=3.109, p=0.036): significantly more time in the target annulus; time in the target quadrant versus vehicle-treated rats ([5]; t(4)=3.881, p=0.018): significantly more time in the target quadrant

**Q.** With CC[C@@H](C(N)=O)N1C[C@H](C=C(F)F)CC1=O [seletracetam] as the compound, how does the “number of errors in the retention phase after the 2-hr delay, effect of dose” value [4] read?
**A.** Its value is “significant effect as a function of dose”.
